Measured values reported in US10897891B2, “Compositions and methods for prolonged cell storage” (Board of Regents, The University of Texas System, priority 2015, dated 2021).
“Also recorded” adds a separate entry of the source.

Legend:
[1] = test system: platelets; experiment: Hydrogen peroxide induced platelet aggregation (platelet 'aging', Experiment B); format: cell-based, human; settings: 2% PEG-400 in PBS, 1 hr room temperature
Protocol: Platelet aggregation using epinephrine. Ten ml of 24 hr old platelet residual was derived from one platelet unit and split into two 5 ml aliquots in 50 ml tubes. One sample received 10% phosphate buffered saline (PBS) and one 10% PBS containing PEG400 such that the final PEG concentration was 2%. These samples were placed on a flat-bed rotator with a 1 inch stroke, at 70 cycles per min, at 5° C. for 7 days. 100 ul of these platelet suspensions were added to wells of a 96 well U bottom plate. Epinephrine 0.1 mg/ml (Pharmaceutical NDC 0409-4921-34-44-048-DK) was diluted with PBS and 100 ul was added to test wells to give a finial concentration of 10 mcg/ml. The plate was rotated overnight to allow aggregation. The extent of aggregation was read using an ELISA plate reader (Molecular Devises, Vmax) at 690 nm wavelength. Platelets, with and without PEG, were also aggregated by the addition of 10% H2O2. Hydrogen peroxide is not an agonist for the platelet receptor; however exposure to hydrogen peroxide mimics the platelet storage lesion though membrane ageing. In this study, the inventors tested 2 day old residual platelets form one donor unit by splitting the material in to a 24 well cluster plate. […] Table 3 presents additional cryoprotective agents scored for the effect on microscopic degranulation (20× high contrast lighting as above). […]

[2] = test system: platelets; experiment: Cholesterol membrane capping with the fluorescent cholesterol probe filipin (Experiment F); format: cell-based, human; settings: 5° C. overnight
Protocol: (Note 1: Stock solutions were prepared in DMSO that was rigorously dried with an equal volume of A-3 molecular sieve that had been regenerated at 300° C. overnight. The resultant filipin stock 25 mg/ml DMSO solution was prepared in a nitrogen atmosphere and frozen at −70° C. to limit water induced hydrolysis.)
Approximately 3 ml of residual pooled platelets were obtained after 72 hr at standard storage conditions. 100 ul of platelets were mixed with 100 ul of fresh filipin (300 ug/ml in PBS+10%, DMSO) in each of 12 wells of a 24 well cluster plate and incubated at room temperature for 35 min. (DMSO was included to assist with membrane loading of the highly insoluble filipin molecule.) All wells were then diluted by adding 2.5 ml of PBS and incubated another 15 min to dilute unbound filipin and allow removal of DMSO by dilution. The plate was next centrifuged at 2500 g for 20 min in a pre-warmed centrifuge at 22° C. All wells were gently aspirated and the PBS was replaced with 3 ml of control or test platelets as follows:
All wells were next incubated 20 min at room temperature to allow DMSO to equilibrate. (Note: the final DMSO concentration in the Control wells or the PEG-400 only wells would be 6 parts in 10,000 or 0.06%.) Next the plate was held at 5° C. overnight and in the morning centrifuged in a 5° C. equilibrated centrifuge at 2,500 g for 20 min. Cold 4% Formalin/PBS was carefully added and the plate returned to 5° C. for overnight incubation. At 18 hr the plate was allowed to fix again at room temperature in the dark for 4 hours. Subsequently the formalin was aspirated and the plate washed with 4 changes of 2 ml of PBS. Finally, excess fluid was removed and the wells were photographed with an inverted fluorescent microscope. Note 2: Filipin is rapidly photo-bleached with the UV, thus the light intensity was lowered with a barrier filter of ˜20% was used. This filter setting was used consistently for all photographs. All photographs were taken under the same camera conditions. No post photographic image alterations were made. […]

Polyethylene glycol [PEG-400] was tested, and the “platelet aggregation after 10% hydrogen peroxide vs PBS control” value [1] was “less aggregation of the platelets”, the “filipin clustering / cholesterol capping vs PBS control” value ([2]; 2% PEG-400 in PBS) was “less filipin clustering; also recorded: less cholesterol capping” and the “filipin clustering / cholesterol capping vs PBS control” value ([2]; 4% PEG-400 in PBS) was “less cholesterol capping”. For the same substance, the “filipin clustering / cholesterol capping vs PBS control” value ([2]; 4% PEG-400 in PBS, listed as PEG) was “less filipin clustering”.
